Reference: ChEMBL document CHEMBL2321853, “Novel acylethanolamide derivatives that modulate body weight through enhancement of hypothalamic pro-opiomelanocortin (POMC) and/or decreased neuropeptide Y (NPY)” (J Med Chem, 2013)
Activity calls are given as the source filed them. The calls are words filed in the database; no cut-off is given here.

Columns and labels:
Mus musculus [1] = experiment: Antiobesity activity in Sabra mouse assessed as change in food consumption at 1 mg/kg, ip administered on day 8, 9, 10, 11, 14, 18, 24 and 32 measured after 4 weeks relative to control; type: functional; details: route intraperitoneal
Hypothalamus [2] = experiment: Effect on POMC gene expression in Sabra mouse hypothalamus assessed as change in mRNA level at 1 mg/kg, ip administered on day 8, 9, 10, 11, 14, 18, 24 and 32 by RT-PCR analysis relative to GAPDH; type: functional; details: route intraperitoneal
Mus musculus [3] = experiment: Antiobesity activity in Sabra mouse assessed as change in body weight at 1 mg/kg, ip administered on day 8, 9, 10, 11, 14, 18, 24 and 32 measured on day 35 relative to control; type: functional; details: route intraperitoneal
Mus musculus [4] = experiment: Antiobesity activity in C57BL/6 mouse assessed as change in triglyceride level at 5 mg/kg, ip measured on day 36 (reference value: 0.92 mg/dL); type: functional; details: route intraperitoneal
Mus musculus [5] = experiment: Hepatotoxicity in Sabra mouse assessed as ischemic changes at 1 mg/kg, ip administered on day 8, 9, 10, 11, 14, 18, 24 and 32 by hematoxylin and eosin staining-based histopathological analysis; type: toxicity, organism-based; design: dose 1 mg/kg, route intraperitoneal; details: in vivo
Mus musculus [6] = experiment: Antiobesity activity in C57BL/6 mouse assessed as weight loss at 5 mg/kg, ip administered on day 1, 4, 5, 7, 17, 15, 19 measured on day 17 relative to control; type: functional; details: route intraperitoneal
Mus musculus [7] = experiment: Antiobesity activity in Sabra mouse assessed as change in body weight at 1 mg/kg, ip administered on day 8, 12 and 43 measured on day 5 relative to control; type: functional; details: route intraperitoneal
Mus musculus [8] = experiment: Antiobesity activity in C57BL/6 mouse assessed as weight loss at 5 mg/kg, ip administered on day 1, 4, 5, 7, 17, 15, 19 measured on day 5 relative to control; type: functional; details: route intraperitoneal
Hypothalamus [9] = experiment: Effect on FAAH gene expression in Sabra mouse hypothalamus assessed as change in mRNA level at 1 mg/kg, ip administered on day 8, 9, 10, 11, 14, 18, 24 and 32 by RT-PCR analysis relative to GAPDH; type: functional; details: route intraperitoneal
Mus musculus [10] = experiment: Antiobesity activity in Sabra mouse assessed as change in body weight at 1 mg/kg, ip administered on day 8, 9, 10, 11, 14, 18, 24 and 32 measured on day 30 relative to control; type: functional; details: route intraperitoneal
Mus musculus [11] = experiment: Enhancement of cognitive function C57BL/6 mouse assessed as reduction food consumption at 1 mg/kg, ip administered on day 3, 6, 8, 9, 10 measured on day 10; type: functional, organism-based; design: dose 1 mg/kg
Mus musculus [12] = experiment: Antiobesity activity in high fat diet fed C57BL/6 mouse assessed as reduction in body weight at 1 mg/kg, ip administered on day 3, 6, 8, 9, 10 measured on day 10 relative to control; type: functional; design: scale not given: the % may be the effect or the level left; details: route intraperitoneal
Hypothalamus [13] = experiment: Effect on NPY gene expression in Sabra mouse hypothalamus assessed as change in mRNA level at 1 mg/kg, ip administered on day 8, 9, 10, 11, 14, 18, 24 and 32 by RT-PCR analysis relative to GAPDH; type: functional; details: route intraperitoneal
Mus musculus [14] = experiment: Antiobesity activity in Sabra mouse assessed as change in body weight at 1 mg/kg, ip administered on day 8, 9, 10, 11, 14, 18, 24 and 32 measured on day 21 relative to control; type: functional; details: route intraperitoneal
Mus musculus [15] = experiment: Hepatotoxicity in Sabra mouse assessed as centrilobular apoptotic changes at 1 mg/kg, ip administered on day 8, 9, 10, 11, 14, 18, 24 and 32 by hematoxylin and eosin staining-based histopathological analysis; type: toxicity, organism-based; design: dose 1 mg/kg, route intraperitoneal; details: in vivo
Mus musculus [16] = experiment: Antiobesity activity in C57BL/6 mouse assessed as weight loss at 5 mg/kg, ip administered on day 1, 4, 5, 7, 17, 15, 19 measured on day 12 relative to control; type: functional; details: route intraperitoneal
Mus musculus [17] = experiment: Antiobesity activity in Sabra mouse assessed as change in body weight at 1 mg/kg, ip administered on day 8, 9, 10, 11, 14, 18, 24 and 32 measured on day 14 relative to control; type: functional; details: route intraperitoneal
Mus musculus [18] = experiment: Enhancement of motor activity C57BL/6 mouse assessed as reduction food consumption at 1 mg/kg, ip administered on day 3, 6, 8, 9, 10 measured on day 10; type: functional, organism-based; design: dose 1 mg/kg
Hypothalamus [19] = experiment: Effect on POMC gene expression in Sabra mouse hypothalamus assessed as increase in mRNA level at 1 mg/kg, ip administered on day 6 to 10 measured on day 16 by RT-PCR analysis relative to control; type: functional; details: route intraperitoneal
Mus musculus [20] = experiment: Antiobesity activity in Sabra mouse assessed as change in food consumption at 1 mg/kg, ip administered on day 8, 9, 10, 11, 14, 18, 24 and 32 measured after 5 weeks relative to control; type: functional; details: route intraperitoneal
Mus musculus [21] = experiment: Antiobesity activity in C57BL/6 mouse assessed as change in cholesterol level at 5 mg/kg, ip measured on day 36 (reference value: 86.58 mg/dL); type: functional; details: route intraperitoneal
Mus musculus [22] = experiment: Hepatotoxicity in Sabra mouse assessed as coagulative necrosis changes at 1 mg/kg, ip administered on day 8, 9, 10, 11, 14, 18, 24 and 32 by hematoxylin and eosin staining-based histopathological analysis; type: toxicity, organism-based; design: dose 1 mg/kg, route intraperitoneal; details: in vivo
Mus musculus [23] = experiment: Antiobesity activity in C57BL/6 mouse assessed as weight loss at 5 mg/kg, ip administered on day 1, 4, 5, 7, 17, 15, 19 measured on day 8 relative to control; type: functional; details: route intraperitoneal
Mus musculus [24] = experiment: Antiobesity activity in Sabra mouse assessed as change in body weight at 1 mg/kg, ip administered on day 8, 12 and 43 measured on day 71 relative to control; type: functional; details: route intraperitoneal
Mus musculus [25] = experiment: Antiobesity activity in C57BL/6 mouse assessed as weight loss at 5 mg/kg, ip administered on day 1, 4, 5, 7, 17, 15, 19 measured on day 15 relative to control; type: functional; details: route intraperitoneal
Mus musculus [26] = experiment: Antiobesity activity in Sabra mouse assessed as change in body weight at 1 mg/kg, ip administered on day 8, 12 and 43 measured on day 33 relative to control; type: functional; details: route intraperitoneal
Hypothalamus [27] = experiment: Effect on POMC gene expression in ip dosed Sabra mouse hypothalamus assessed as increase in mRNA level administered on day 6 to 10 measured on day 16 by RT-PCR analysis relative to control; type: functional, organism-based
Mus musculus [28] = experiment: Increase in ALT levels in Sabra mouse at 1 mg/kg, ip administered on day 8, 12 and 43 measured on day 74; type: ADME, organism-based; design: dose 1 mg/kg, route intraperitoneal; details: in vivo
Mus musculus [29] = experiment: Antiobesity activity in C57BL/6 mouse assessed as weight loss at 5 mg/kg, ip administered on day 1, 4, 5, 7, 17, 15, 19 measured on day 19 relative to control; type: functional; details: route intraperitoneal
[30] = target: Cannabinoid receptor 1 (Homo sapiens) (UniProt P21554); experiment: Displacement of [3H]SR141716A from human CB1 receptor expressed in rat Chem-1 cell membrane at 10 uM relative to control; type: cell membranes
Cannabinoid receptor 1 (Homo sapiens), sequence (P21554 whole entry): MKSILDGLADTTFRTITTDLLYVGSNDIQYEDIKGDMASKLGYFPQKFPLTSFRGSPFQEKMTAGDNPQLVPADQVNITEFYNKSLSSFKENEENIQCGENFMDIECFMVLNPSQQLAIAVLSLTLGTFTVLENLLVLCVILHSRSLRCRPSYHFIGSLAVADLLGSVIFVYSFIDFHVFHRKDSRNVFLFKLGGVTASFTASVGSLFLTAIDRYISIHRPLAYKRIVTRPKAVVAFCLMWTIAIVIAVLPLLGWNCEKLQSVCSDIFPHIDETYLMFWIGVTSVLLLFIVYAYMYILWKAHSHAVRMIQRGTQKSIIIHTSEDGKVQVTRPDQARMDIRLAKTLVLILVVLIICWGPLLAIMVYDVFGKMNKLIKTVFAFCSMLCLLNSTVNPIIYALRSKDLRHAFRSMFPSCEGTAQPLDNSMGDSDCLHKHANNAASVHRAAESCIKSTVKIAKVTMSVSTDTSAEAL

Mus musculus [31] = experiment: Antiobesity activity in Sabra mouse assessed as change in food consumption at 1 mg/kg, ip administered on day 8, 9, 10, 11, 14, 18, 24 and 32 measured after 3 weeks relative to control; type: functional; details: route intraperitoneal

CCCCCCCC/C=C\CCCCCCCC(=O)N[C@H](CO)C(C)C
Activity (Mus musculus [1]): 90.3% | Activity (Hypothalamus [2]): 36% | Activity (Mus musculus [3]): -6.2% | Activity (Mus musculus [4]): 1.017 mg/dL | Activity (Mus musculus [5]): Non-toxic | Activity (Mus musculus [6]): -3.6% | Activity (Mus musculus [7]): 1.8% | Activity (Mus musculus [8]): -3.2% | Activity (Hypothalamus [9]): -33% | Activity (Mus musculus [10]): -5.2% | Activity (Mus musculus [11]): Active | Activity (Mus musculus [12]): -6.3% | Activity (Hypothalamus [13]): -11% | Activity (Mus musculus [14]): -2.4% | Activity (Mus musculus [15]): Non-toxic | Activity (Mus musculus [16]): -5.6% | Activity (Mus musculus [17]): -1.8% | Activity (Mus musculus [18]): Active | Activity (Hypothalamus [19]): 50% | Activity (Mus musculus [20]): 85.9% | Activity (Mus musculus [21]): 83.01 mg/dL | Activity (Mus musculus [22]): Non-toxic | Activity (Mus musculus [23]): -4.6% | Activity (Mus musculus [24]): -11.4% | Activity (Mus musculus [25]): -4.7% | Activity (Mus musculus [26]): -5.2% | Activity (Hypothalamus [27]): Dose-dependent effect | Activity (Mus musculus [28]): Not Active | Activity (Mus musculus [29]): 2.1% | inhibition [30]: 35% | Activity (Mus musculus [31]): 91.2%
